Results: article PMC10507085, “Pharmacological inhibition of TBK1/IKKε blunts immunopathology in a murine model of SARS-CoV-2 infection” (Nature Communications, 2023)

Key:
Experiment in all cases: biochemical
Design in all cases: KINOMEscan competition binding, DNA-tagged kinase against immobilised ligand, qPCR read-out
Conditions in all cases: read-out: Percent Control
[1] = molecular target: IKBKE (Homo sapiens, UniProt Q14164)
[2] = molecular target: TLK1 (Homo sapiens, UniProt Q9UKI8)
[3] = molecular target: BMX (Homo sapiens, UniProt P51813)
[4] = molecular target: CSNK2A2 (Homo sapiens, UniProt P19784)
[5] = molecular target: KIT-autoinhibited (Homo sapiens, UniProt P10721)
Chain of KIT-autoinhibited (P10721 whole entry): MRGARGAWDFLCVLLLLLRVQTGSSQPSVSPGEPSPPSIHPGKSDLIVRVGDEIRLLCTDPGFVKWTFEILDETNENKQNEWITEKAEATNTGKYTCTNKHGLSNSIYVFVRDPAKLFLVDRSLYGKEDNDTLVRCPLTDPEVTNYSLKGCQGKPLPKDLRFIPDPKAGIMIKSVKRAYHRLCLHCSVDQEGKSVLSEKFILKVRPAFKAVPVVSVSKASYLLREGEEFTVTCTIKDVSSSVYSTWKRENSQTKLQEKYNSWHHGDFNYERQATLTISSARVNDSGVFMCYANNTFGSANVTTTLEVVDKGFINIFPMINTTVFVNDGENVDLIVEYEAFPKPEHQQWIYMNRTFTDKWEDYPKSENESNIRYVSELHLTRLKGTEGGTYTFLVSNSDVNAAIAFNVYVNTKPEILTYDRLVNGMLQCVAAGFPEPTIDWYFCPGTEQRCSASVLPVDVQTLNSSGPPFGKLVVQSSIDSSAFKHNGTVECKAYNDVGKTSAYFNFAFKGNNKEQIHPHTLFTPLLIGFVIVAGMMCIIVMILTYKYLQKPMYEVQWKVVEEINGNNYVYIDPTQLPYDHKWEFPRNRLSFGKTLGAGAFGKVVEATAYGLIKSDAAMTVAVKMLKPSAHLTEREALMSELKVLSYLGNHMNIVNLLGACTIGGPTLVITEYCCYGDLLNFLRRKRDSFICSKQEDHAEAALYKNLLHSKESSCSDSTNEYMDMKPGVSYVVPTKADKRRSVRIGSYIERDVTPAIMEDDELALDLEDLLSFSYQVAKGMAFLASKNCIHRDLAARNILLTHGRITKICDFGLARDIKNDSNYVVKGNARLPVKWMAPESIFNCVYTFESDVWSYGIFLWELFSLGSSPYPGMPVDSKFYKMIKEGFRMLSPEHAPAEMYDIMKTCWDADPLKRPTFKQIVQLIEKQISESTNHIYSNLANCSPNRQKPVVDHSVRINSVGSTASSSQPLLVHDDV

[6] = molecular target: T1, ADRBK1 (Homo sapiens, UniProt P25098)
T1 construct: gene GRK2

[7] = molecular target: CDK16 (Homo sapiens, UniProt Q00536)
[8] = molecular target: PAK3 (Homo sapiens, UniProt O75914)
[9] = molecular target: LATS1 (Homo sapiens, UniProt O95835)
Chain of LATS1 (O95835 whole entry): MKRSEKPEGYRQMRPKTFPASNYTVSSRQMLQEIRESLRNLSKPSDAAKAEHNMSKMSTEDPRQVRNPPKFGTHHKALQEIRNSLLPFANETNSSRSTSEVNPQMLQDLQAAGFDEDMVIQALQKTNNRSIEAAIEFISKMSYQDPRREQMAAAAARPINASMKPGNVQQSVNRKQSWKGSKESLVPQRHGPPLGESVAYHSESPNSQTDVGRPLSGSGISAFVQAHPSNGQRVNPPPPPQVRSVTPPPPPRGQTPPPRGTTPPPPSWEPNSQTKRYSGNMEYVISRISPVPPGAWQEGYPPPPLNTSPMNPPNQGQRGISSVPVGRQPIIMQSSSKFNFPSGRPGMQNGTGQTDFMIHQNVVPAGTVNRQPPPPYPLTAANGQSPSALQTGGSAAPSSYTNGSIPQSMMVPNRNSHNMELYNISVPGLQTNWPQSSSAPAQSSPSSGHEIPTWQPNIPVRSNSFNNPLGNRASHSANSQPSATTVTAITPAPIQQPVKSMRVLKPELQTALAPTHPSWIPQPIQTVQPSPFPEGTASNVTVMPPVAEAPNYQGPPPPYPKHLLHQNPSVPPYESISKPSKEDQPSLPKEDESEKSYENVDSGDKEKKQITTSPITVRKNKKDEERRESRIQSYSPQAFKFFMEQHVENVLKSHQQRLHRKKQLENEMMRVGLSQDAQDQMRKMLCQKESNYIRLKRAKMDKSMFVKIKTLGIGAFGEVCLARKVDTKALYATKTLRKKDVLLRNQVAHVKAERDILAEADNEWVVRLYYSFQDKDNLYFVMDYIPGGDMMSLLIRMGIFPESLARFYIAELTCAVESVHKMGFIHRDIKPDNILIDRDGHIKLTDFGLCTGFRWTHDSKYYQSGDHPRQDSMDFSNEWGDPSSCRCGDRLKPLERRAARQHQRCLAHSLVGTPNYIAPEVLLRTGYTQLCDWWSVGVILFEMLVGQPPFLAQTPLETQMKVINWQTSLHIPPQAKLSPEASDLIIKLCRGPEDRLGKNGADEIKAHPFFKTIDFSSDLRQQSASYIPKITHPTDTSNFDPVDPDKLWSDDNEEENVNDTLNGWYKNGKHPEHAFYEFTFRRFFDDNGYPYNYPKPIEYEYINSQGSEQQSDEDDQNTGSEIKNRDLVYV

[10] = molecular target: MAP3K14 (Homo sapiens, UniProt Q99558)
Chain of MAP3K14 (Q99558 whole entry): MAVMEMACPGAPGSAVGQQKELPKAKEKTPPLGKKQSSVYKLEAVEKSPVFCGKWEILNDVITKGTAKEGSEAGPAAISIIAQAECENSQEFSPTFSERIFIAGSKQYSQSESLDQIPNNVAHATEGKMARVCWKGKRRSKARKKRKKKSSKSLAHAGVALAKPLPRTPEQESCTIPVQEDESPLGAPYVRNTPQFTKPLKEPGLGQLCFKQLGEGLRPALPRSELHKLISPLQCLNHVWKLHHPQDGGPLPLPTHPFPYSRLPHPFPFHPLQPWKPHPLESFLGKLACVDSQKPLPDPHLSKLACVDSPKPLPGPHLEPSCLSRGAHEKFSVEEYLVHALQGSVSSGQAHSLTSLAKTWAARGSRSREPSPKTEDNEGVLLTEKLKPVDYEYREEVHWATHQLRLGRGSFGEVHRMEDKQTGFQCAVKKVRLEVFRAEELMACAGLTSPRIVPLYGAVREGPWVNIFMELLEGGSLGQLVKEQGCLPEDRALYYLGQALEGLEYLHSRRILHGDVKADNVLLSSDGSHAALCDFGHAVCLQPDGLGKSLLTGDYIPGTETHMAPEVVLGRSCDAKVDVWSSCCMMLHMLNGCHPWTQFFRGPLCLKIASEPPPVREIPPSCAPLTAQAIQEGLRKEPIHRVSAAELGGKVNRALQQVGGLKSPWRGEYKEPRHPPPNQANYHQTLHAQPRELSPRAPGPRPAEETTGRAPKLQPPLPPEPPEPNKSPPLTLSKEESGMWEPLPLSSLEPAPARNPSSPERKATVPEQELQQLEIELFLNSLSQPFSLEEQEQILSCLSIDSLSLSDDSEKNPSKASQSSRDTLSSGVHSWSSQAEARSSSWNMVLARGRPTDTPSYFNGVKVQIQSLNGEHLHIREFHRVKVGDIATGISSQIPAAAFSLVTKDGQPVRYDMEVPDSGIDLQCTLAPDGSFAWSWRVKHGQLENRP

[11] = molecular target: T2, ABL1-phosphorylated (Homo sapiens, UniProt P00519)
T2 construct: phosphorylated
T2 sequence (P00519 whole entry): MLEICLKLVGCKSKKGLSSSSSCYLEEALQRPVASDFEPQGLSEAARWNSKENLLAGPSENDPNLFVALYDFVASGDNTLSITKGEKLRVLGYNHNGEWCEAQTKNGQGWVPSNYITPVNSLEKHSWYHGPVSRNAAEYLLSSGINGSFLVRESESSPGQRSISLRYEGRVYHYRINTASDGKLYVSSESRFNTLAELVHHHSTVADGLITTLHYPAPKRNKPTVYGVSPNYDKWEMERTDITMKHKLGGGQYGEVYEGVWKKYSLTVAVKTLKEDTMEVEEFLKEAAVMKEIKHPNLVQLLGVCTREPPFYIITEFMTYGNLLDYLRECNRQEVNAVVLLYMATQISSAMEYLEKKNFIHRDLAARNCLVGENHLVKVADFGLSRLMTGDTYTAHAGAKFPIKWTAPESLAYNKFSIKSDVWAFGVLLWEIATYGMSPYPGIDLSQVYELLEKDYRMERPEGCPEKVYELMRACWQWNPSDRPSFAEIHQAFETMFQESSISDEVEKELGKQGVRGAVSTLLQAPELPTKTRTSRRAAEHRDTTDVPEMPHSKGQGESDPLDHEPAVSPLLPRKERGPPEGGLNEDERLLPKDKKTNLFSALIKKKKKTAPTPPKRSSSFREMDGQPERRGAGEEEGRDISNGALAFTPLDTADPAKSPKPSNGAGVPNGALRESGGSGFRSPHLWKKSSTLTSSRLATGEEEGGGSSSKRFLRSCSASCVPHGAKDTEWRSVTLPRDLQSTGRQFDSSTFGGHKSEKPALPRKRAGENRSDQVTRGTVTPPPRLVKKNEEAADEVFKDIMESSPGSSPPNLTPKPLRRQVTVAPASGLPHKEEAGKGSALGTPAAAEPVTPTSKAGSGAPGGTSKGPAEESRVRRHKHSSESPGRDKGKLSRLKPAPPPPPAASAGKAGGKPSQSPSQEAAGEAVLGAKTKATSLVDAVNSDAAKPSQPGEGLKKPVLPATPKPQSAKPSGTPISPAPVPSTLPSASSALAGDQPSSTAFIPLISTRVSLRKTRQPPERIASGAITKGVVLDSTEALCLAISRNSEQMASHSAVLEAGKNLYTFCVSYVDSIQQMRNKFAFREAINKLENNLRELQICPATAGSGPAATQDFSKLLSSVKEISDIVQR

[12] = molecular target: CSNK1G2 (Homo sapiens, UniProt P78368)
[13] = molecular target: TSSK1B (Homo sapiens, UniProt Q9BXA7)
Chain of TSSK1B (Q9BXA7 whole entry): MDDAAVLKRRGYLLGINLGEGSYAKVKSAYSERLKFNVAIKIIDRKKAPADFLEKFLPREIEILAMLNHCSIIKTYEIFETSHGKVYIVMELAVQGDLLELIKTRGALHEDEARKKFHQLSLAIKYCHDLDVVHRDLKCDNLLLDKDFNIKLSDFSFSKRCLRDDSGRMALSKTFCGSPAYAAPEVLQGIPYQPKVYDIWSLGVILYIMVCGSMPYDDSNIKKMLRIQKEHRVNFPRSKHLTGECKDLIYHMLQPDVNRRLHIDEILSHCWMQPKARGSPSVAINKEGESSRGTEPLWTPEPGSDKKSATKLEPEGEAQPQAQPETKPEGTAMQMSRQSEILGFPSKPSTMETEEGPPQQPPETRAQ

[14] = molecular target: PKN2 (Homo sapiens, UniProt Q16513)
[15] = molecular target: MAST1 (Homo sapiens, UniProt Q9Y2H9)
[16] = molecular target: KIT (Homo sapiens, UniProt P10721)
Chain of KIT (P10721 whole entry): as the sequence (P10721 whole entry) above

[17] = molecular target: CLK4 (Homo sapiens, UniProt Q9HAZ1)
[18] = molecular target: PIP4K2C (Homo sapiens, UniProt Q8TBX8)
[19] = molecular target: PRKAA2 (Homo sapiens, UniProt P54646)
[20] = molecular target: FRK (Homo sapiens, UniProt P42685)
Chain of FRK (P42685 whole entry): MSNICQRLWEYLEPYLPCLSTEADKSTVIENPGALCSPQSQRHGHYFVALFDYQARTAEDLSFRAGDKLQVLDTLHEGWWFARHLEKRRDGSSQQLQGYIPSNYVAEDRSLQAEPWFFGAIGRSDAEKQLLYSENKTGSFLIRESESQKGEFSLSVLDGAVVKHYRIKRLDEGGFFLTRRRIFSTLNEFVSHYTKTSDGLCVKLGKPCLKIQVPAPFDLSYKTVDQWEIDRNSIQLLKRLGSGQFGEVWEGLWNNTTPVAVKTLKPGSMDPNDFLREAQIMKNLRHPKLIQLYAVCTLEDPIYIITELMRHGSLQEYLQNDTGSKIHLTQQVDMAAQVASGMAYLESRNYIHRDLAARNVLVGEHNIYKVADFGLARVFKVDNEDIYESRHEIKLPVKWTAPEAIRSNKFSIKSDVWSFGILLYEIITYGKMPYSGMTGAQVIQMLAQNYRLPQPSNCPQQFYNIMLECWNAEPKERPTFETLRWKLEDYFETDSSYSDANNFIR

For `Oc1ccc(C2=Cc3ccc(O)cc3OC2)cc1` [compound 1, idronoxil], the remaining binding at 10 µM [1] was 65%, the remaining binding at 10 µM [2] was 71% and the remaining binding at 10 µM [3] was 75%. The remaining binding at 10 µM [4] was 35%, the remaining binding at 10 µM [5] was 60% and the remaining binding at 10 µM [6] was 76%. The remaining binding at 10 µM [7] was 93%, the remaining binding at 10 µM [8] was 100% and the remaining binding at 10 µM [9] was 100%. The remaining binding at 10 µM [10] was 60%, the remaining binding at 10 µM [11] was 35% and the remaining binding at 10 µM [12] was 82%. The remaining binding at 10 µM [13] was 87%, the remaining binding at 10 µM [14] was 70% and the remaining binding at 10 µM [15] was 93%. It also gave a remaining binding at 10 µM [16] of 19%, a remaining binding at 10 µM [17] of 36% and a remaining binding at 10 µM [18] of 52%. The remaining binding at 10 µM [19] was 84% and the remaining binding at 10 µM [20] was 78%.
